Biological target: H1047R PIK3CA enzyme (Homo sapiens, UniProt P42336, H1047R)
Assay: ADP-Glo Biochemical PIK3CA Kinase Assay

Chain of H1047R PIK3CA enzyme (P42336 whole entry H1047R): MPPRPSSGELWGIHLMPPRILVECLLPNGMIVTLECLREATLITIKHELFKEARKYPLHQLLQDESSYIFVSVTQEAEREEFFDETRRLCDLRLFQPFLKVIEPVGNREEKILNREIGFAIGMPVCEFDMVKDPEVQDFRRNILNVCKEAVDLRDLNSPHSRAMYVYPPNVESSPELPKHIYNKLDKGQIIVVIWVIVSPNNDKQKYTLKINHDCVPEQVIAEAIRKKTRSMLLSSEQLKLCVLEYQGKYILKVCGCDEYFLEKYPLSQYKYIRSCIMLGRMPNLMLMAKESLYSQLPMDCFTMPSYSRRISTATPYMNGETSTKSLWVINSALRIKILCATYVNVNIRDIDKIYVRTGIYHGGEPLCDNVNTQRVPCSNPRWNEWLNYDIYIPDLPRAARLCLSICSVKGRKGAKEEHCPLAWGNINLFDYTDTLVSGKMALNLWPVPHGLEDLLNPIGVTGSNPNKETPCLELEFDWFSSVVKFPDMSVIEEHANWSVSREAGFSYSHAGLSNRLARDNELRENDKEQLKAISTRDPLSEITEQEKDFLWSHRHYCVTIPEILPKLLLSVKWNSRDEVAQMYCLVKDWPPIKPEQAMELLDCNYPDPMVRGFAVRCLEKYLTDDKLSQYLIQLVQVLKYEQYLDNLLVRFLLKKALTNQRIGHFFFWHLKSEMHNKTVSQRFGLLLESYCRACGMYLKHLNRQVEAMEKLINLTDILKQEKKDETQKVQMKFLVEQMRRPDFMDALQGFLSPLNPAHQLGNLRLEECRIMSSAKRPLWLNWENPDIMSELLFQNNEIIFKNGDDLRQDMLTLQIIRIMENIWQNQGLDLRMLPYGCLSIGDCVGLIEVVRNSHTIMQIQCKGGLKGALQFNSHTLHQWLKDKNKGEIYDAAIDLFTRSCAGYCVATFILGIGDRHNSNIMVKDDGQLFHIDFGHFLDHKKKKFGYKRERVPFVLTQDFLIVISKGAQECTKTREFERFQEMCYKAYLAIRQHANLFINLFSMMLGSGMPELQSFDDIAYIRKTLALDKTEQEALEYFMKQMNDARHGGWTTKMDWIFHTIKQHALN
Chain of H1047R PIK3CA enzyme (P27986 whole entry partner): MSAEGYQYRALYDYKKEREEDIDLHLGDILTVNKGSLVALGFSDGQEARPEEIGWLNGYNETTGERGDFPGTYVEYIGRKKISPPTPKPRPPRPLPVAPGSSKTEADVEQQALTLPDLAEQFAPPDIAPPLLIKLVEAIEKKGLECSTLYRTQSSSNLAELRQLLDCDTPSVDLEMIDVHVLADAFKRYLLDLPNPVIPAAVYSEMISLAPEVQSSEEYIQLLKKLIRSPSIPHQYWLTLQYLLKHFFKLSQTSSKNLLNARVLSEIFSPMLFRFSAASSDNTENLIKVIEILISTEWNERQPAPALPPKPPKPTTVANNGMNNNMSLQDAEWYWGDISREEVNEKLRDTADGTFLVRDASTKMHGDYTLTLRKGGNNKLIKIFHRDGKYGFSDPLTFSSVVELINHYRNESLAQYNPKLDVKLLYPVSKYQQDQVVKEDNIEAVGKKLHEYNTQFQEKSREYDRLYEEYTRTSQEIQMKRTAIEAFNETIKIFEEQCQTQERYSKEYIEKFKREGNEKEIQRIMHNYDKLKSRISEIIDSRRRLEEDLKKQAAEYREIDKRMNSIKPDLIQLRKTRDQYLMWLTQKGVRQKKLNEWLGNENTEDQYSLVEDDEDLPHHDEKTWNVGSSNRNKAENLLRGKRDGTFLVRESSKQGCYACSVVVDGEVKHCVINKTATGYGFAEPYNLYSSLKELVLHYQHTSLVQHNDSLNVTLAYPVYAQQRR

Structure (SMILES)	IC50
CN1CCN(C(=O)Nc2cc(Br)cc3c2[C@@H](c2cc(F)ccc2Cl)NC3=O)CC1 (single isomer, unassigned) [Compound I-2245]	10 to 100 µM
CC(C)(C)N[C@@H]1NC(=O)c2cccc(NC(=O)c3cc(F)cc(C(F)(F)F)c3)c21 (single isomer, unassigned) [Compound I-2247]	10 to 100 µM
CC(C)(C)N[C@H]1NC(=O)c2cccc(NC(=O)c3cc(F)cc(C(F)(F)F)c3)c21 (single isomer, unassigned) [Compound I-2248]	10 to 100 µM
O=C(Nc1cccc2c1[C@@H](NC1CCCC1)NC2=O)c1cc(F)cc(C(F)(F)F)c1 (single isomer, unassigned) [Compound I-2249]	10 to 100 µM
O=C(Nc1cccc2c1[C@H](NC1CCCC1)NC2=O)c1cc(F)cc(C(F)(F)F)c1 (single isomer, unassigned) [Compound I-2250]	10 to 100 µM
O=C1CCC[C@H]([C@H]2NC(=O)c3cccc(NC(=O)c4cc(F)cc(C(F)(F)F)c4)c32)C1 (single isomer, unassigned) [Compound I-2252]	10 to 100 µM
O=C1CCC[C@@H]([C@H]2NC(=O)c3cccc(NC(=O)c4cc(F)cc(C(F)(F)F)c4)c32)C1 (single isomer, unassigned) [Compound I-2253]	10 to 100 µM
O=C1CCC[C@H]([C@@H]2NC(=O)c3cccc(NC(=O)c4cc(F)cc(C(F)(F)F)c4)c32)C1 (single isomer, unassigned) [Compound I-2254]	10 to 100 µM
O=C1CCC[C@@H]([C@@H]2NC(=O)c3cccc(NC(=O)c4cc(F)cc(C(F)(F)F)c4)c32)C1 (single isomer, unassigned) [Compound I-2255]	10 to 100 µM
O=C(Nc1cc(-c2cn3ncnc3cn2)cc2c1[C@@H](c1cc(F)ccc1C(F)F)NC2=O)c1cc(F)cc(Cl)c1 (single isomer, unassigned) [Compound I-2258]	1 to 10 µM
C[C@@]1(C(=O)Nc2cc(Br)cc3c2[C@@H](c2cc(F)ccc2Cl)NC3=O)CCC[C@H](C(F)(F)F)C1 (single isomer, unassigned) [Compound I-2260]	0.5 to 1 µM
C[C@]1(C(=O)Nc2cc(Br)cc3c2[C@H](c2cc(F)ccc2Cl)NC3=O)CCC[C@@H](C(F)(F)F)C1 (single isomer, unassigned) [Compound I-2263]	1 to 10 µM
C[C@@]1(C(=O)Nc2cc(Br)cc3c2[C@@H](c2cc(F)ccc2Cl)NC3=O)CCC[C@H](C(F)(F)F)C1 (single isomer, unassigned) [Compound I-2264]	0.1 to 0.5 µM
C[C@H](c1nn[nH]c1C(=O)Nc1cccc2c1[C@@H](c1cc(F)ccc1Cl)NC2=O)C(F)(F)F (single isomer, unassigned) [Compound I-2268]	10 to 100 µM
C[C@H](c1nn[nH]c1C(=O)Nc1cccc2c1[C@H](c1cc(F)ccc1Cl)NC2=O)C(F)(F)F (single isomer, unassigned) [Compound I-2269]	10 to 100 µM
C[C@@H](c1nn[nH]c1C(=O)Nc1cccc2c1[C@@H](c1cc(F)ccc1Cl)NC2=O)C(F)(F)F (single isomer, unassigned) [Compound I-2270]	10 to 100 µM
C[C@@H](c1nn[nH]c1C(=O)Nc1cccc2c1[C@H](c1cc(F)ccc1Cl)NC2=O)C(F)(F)F (single isomer, unassigned) [Compound I-2271]	1 to 10 µM
O=C1N[C@H](c2cc(F)ccc2Cl)c2c(NC(=O)[C@H]3C[C@@H](O)C[C@@H](C(F)(F)F)C3)cc(Br)cc21 (single isomer, unassigned) [Compound I-2272]	10 to 100 µM
O=C1N[C@@H](c2cc(F)ccc2Cl)c2c(NC(=O)[C@H]3C[C@@H](O)C[C@@H](C(F)(F)F)C3)cc(Br)cc21 (single isomer, unassigned) [Compound I-2273]	10 to 100 µM
O=C1N[C@H](c2cc(F)ccc2Cl)c2c(NC(=O)[C@H]3CC(C(F)(F)F)C[C@@H](O)C3)cc(Br)cc21 (single isomer, unassigned) [Compound I-2274]	10 to 100 µM
O=C1N[C@@H](c2cc(F)ccc2Cl)c2c(NC(=O)[C@H]3CC(C(F)(F)F)C[C@@H](O)C3)cc(Br)cc21 (single isomer, unassigned) [Compound I-2275]	10 to 100 µM
O=C1N[C@H](c2cc(F)ccc2Cl)c2c(NC(=O)N3C[C@@H](CO)[C@H](C(F)(F)F)C3)cccc21 (single isomer, unassigned) [Compound I-2276]	10 to 100 µM
O=C1N[C@@H](c2cc(F)ccc2Cl)c2c(NC(=O)N3C[C@@H](CO)[C@H](C(F)(F)F)C3)cccc21 (single isomer, unassigned) [Compound I-2277]	1 to 10 µM
O=C1N[C@H](c2cc(F)ccc2Cl)c2c(NC(=O)N3C[C@H](CO)[C@@H](C(F)(F)F)C3)cccc21 (single isomer, unassigned) [Compound I-2278]	10 to 100 µM
O=C1N[C@@H](c2cc(F)ccc2Cl)c2c(NC(=O)N3C[C@H](CO)[C@@H](C(F)(F)F)C3)cccc21 (single isomer, unassigned) [Compound I-2279]	10 to 100 µM
O=C(Nc1cccc2c1[C@@H](C[C@@H]1CCCCN1)NC2=O)c1cc(F)cc(C(F)(F)F)c1 (single isomer, unassigned) [Compound I-2281]	10 to 100 µM

Structure (SMILES)	IC50
CC([C@@H]1C[C@@H](O)CN1C(=O)Nc1cccc2c1C(c1cc(F)ccc1Cl)NC2=O)C(F)(F)F (single isomer, unassigned) [Compound I-2286]	0.5 to 1 µM
CC([C@H]1C[C@@H](O)CN1C(=O)Nc1cccc2c1C(c1cc(F)ccc1Cl)NC2=O)C(F)(F)F (single isomer, unassigned) [Compound I-2287]	10 to 100 µM
O=C1N[C@@H](c2cc(F)ccc2Cl)c2c(NC(=O)N3C[C@H](O)c4cc(F)c(F)cc43)cccc21 (single isomer, unassigned) [Compound I-2291]	1 to 10 µM
O=C1N[C@H](c2cc(F)ccc2Cl)c2c(NC(=O)N3C[C@H](O)c4cc(F)c(F)cc43)cccc21 (single isomer, unassigned) [Compound I-2292]	10 to 100 µM
O=C1N[C@H](c2cc(F)ccc2Cl)c2c(NC(=O)N3C[C@H](O)c4cc(F)c(F)cc43)cccc21 (single isomer, unassigned) [Compound I-2294]	10 to 100 µM
O=C1N[C@H](c2cc(F)ccc2Cl)c2c(NC(=O)N3C[C@@H](O)c4c3ccc(F)c4F)cccc21 (single isomer, unassigned) [Compound I-2311]	1 to 10 µM
O=C1N[C@@H](c2cc(F)ccc2Cl)c2c(NC(=O)N3C[C@H](O)c4c3ccc(F)c4F)cccc21 (single isomer, unassigned) [Compound I-2312]	1 to 10 µM
O=C1N[C@@H](c2cc(F)ccc2Cl)c2c(NC(=O)N3C[C@@H](O)c4c3ccc(F)c4F)cccc21 (single isomer, unassigned) [Compound I-2313]	1 to 10 µM
O=C(Nc1cccc2c1[C@H]([C@@H]1CCCCCN1)NC2=O)c1cc(F)cc(C(F)(F)F)c1 (single isomer, unassigned) [Compound I-2319]	10 to 100 µM
O=C(Nc1cc(NC2=NC[C@H](C(F)(F)F)O2)cc2c1[C@H](c1cc(F)ccc1Cl)NC2=O)c1cc(F)cc(C(F)(F)F)c1 (single isomer, unassigned) [Compound I-2323]	0.1 to 0.5 µM
O=C(Nc1cc(NC2=NC[C@H](C(F)(F)F)O2)cc2c1[C@@H](c1cc(F)ccc1Cl)NC2=O)c1cc(F)cc(C(F)(F)F)c1 (single isomer, unassigned) [Compound I-2325]	1 to 10 µM
O=C(Nc1cc(NC2=NC[C@@H](C(F)(F)F)O2)cc2c1[C@@H](c1cc(F)ccc1Cl)NC2=O)c1cc(F)cc(C(F)(F)F)c1 (single isomer, unassigned) [Compound I-2326]	1 to 10 µM
O=C1NC(c2cc(F)ccc2Cl)c2c(NC(=O)N3CCC4C3[C@H]4C(F)(F)F)cccc21 (single isomer, unassigned) [Compound I-2328]	10 to 100 µM
O=C1NC(c2cc(F)ccc2Cl)c2c(NC(=O)N3CCC4C3[C@@H]4C(F)(F)F)cccc21 (single isomer, unassigned) [Compound I-2329]	1 to 10 µM
O=C1N[C@H](c2cc(F)ccc2Cl)c2c(NC(=O)N3C[C@@H](C(F)F)c4ccccc43)cccc21 (single isomer, unassigned) [Compound I-2331]	1 to 10 µM
O=C1N[C@@H](c2cc(F)ccc2Cl)c2c(NC(=O)N3C[C@H](C(F)F)c4ccccc43)cccc21 (single isomer, unassigned) [Compound I-2332]	1 to 10 µM
CC[C@H](CC(=O)Nc1cccc2c1[C@H](c1cc(F)ccc1Cl)NC2=O)[C@@H](C)C(F)(F)F (single isomer, unassigned) [Compound I-2335]	1 to 10 µM
CC[C@@H](CC(=O)Nc1cccc2c1[C@H](c1cc(F)ccc1Cl)NC2=O)[C@H](C)C(F)(F)F (single isomer, unassigned) [Compound I-2336]	1 to 10 µM
CC[C@@H](CC(=O)Nc1cccc2c1[C@@H](c1cc(F)ccc1Cl)NC2=O)[C@H](C)C(F)(F)F (single isomer, unassigned) [Compound I-2337]	10 to 100 µM
CC[C@H](CC(=O)Nc1cccc2c1[C@@H](c1cc(F)ccc1Cl)NC2=O)[C@@H](C)C(F)(F)F (single isomer, unassigned) [Compound I-2338]	10 to 100 µM
O=C1N[C@@H](c2cc(F)ccc2Cl)c2c(NC(=O)N3C[C@H](O)c4cc(F)ccc43)cc(-n3nccn3)cc21 (single isomer, unassigned) [Compound I-2342]	0.1 to 0.5 µM
O=C1N[C@@H](c2cc(F)ccc2Cl)c2c(NC(=O)N3C[C@H](O)c4cc(F)ccc43)cc(-n3nccn3)cc21 (single isomer, unassigned) [Compound I-2343]	1 to 10 µM
O=C1N[C@H](c2cc(F)ccc2Cl)c2c(NC(=O)N3C[C@@H](O)c4cc(F)ccc43)cc(-n3nccn3)cc21 (single isomer, unassigned) [Compound I-2344]	1 to 10 µM
O=C1N[C@H](c2cc(F)ccc2Cl)c2c(NC(=O)N3C[C@@H](O)c4cc(F)ccc43)cc(-n3nccn3)cc21 (single isomer, unassigned) [Compound I-2345]	1 to 10 µM
N#CCCc1cc(NC(=O)N2C[C@@H](O)c3cc(F)ccc32)c2c(c1)C(=O)N[C@H]2c1cc(F)ccc1Cl (single isomer, unassigned) [Compound I-2347]	0.1 to 0.5 µM
